Results on 24 molecules are retold here after patent publication US12435087B2, “Modulators of DCN-1 and methods of use thereof” (Cellarity, Inc., priority 2023, dated 2025).

Experiment [1] has as its target DCN1 (DCUND1) protein PONY domain (Homo sapiens (Human), UniProt Q96GG9). The experiment is described as follows: TR-FRET assay (binding to DCN-1, displacement of FAM-labeled probe). A digest of the protocol:
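Compounds read at 1, 5 and 24 h, 0.1% final DMSO, by TR-FRET between terbium-streptavidin on biotinylated DCN1 PONY domain (E. coli) and a FAM-tagged non-covalent inhibitor probe. Two setups used, 5 nM protein with 20 nM labelled probe, or 0.31 nM protein with 100 nM labelled plus 800 nM unlabelled probe; buffer had TritonX and 200 mM NaCl. % activity relative to high (with probe) and low (without probe) controls.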

A further experiment concerns the target DCN1 protein (Homo sapiens (Human), UniProt Q96GG9). The experiment is described as follows: Intact protein MS analysis with the RapidFire-TOF system (covalent adduct formation). Format: binding. The following applies: 400 nM DCN1, incubated at room temperature for 3 hours. Here is the method:
(§1) DCN1 protein, His-TEV-DCN1, were expressed in E. Coli. The His-tagged protein was first purified with an Ni-NTA column. The His-tag was cleaved using His-tag TEV protease and the His-tags were removed using a second Ni-NTA column. Protein purity was verified with SDS-PAGE and intact MS. DCN1 was dissolved in a buffer containing 25 mM Tris-HCl, 200 mM NaCl, and 1 mM DTT at 400 nM. 11 concentrations of compounds were added to the DCN1 solution and incubated at room temperature for 3 hours, unless otherwise specified. The reaction plates were quenched by adding 0.2% formic acid. Quenched assay plates were analyzed with an Agilent RapidFire 360 system connected to an Agilent 6545 Q-TOF mass spectrometer equipped with an AJS source. 10 μL of sample volume was loaded onto a custom packed cartridge (4 μL, PLRP-S 30 μm/1000 Å pore; Optimize Technologies) with loading buffer (ddH2O with 0.09% (vol/vol) formic acid and 0.01% (vol/vol) trifluoroacetic acid; 1.25 ml/min) for 6 seconds before being eluted directly into the mass spectrometer in elution buffer (80% acetonitrile with 0.09% (vol/vol) formic acid and 0.01% (vol/vol) trifluoroacetic acid; 0.5 ml/min) for 7 seconds. The cartridge was re-equilibrated with loading buffer for 1 second before collection of the next sample. The Q-TOF was operated in TOF-only positive ionization mode set to the following parameters: Gas Temp=350 C, Drying Gas=7 l/min, Nebulizer=50 psi, Sheath Gas Temp=400 C, Sheath Gas Flow=12 l/min, VCap=4000 V, Nozzle Voltage=1000 V, Fragmentor=125 V, Skimmer=65 V and Oct 1 RF Vpp=750V. Raw MS data files were deconvoluted and analyzed using the Agilent MassHunter Bioconfirm software package to identify both parent protein and expected compound adduct mass signatures.
An MS assay was performed to evaluate the ability of the compounds to covalently modify DCN-1.
as §1, with “Vcap=4000” for “VCap=4000”

[2] abbreviates: 24 hr after treatment with compound, read-out: TR FRET IC50 24 hr.
Setting [3] is: read-out: TR FRET IC50 1 hr, 1 hr after treatment with compound.
Setting [4] is: TR FRET IC50 1 hr (nM), 1 hr after treatment with compound.

Molecules are shown by their SMILES. Read-outs that look alike come from different tables or passages of the source. Where only a bound is given, the exact number is not on record here.

Chain of DCN1 protein (Q96GG9 whole entry): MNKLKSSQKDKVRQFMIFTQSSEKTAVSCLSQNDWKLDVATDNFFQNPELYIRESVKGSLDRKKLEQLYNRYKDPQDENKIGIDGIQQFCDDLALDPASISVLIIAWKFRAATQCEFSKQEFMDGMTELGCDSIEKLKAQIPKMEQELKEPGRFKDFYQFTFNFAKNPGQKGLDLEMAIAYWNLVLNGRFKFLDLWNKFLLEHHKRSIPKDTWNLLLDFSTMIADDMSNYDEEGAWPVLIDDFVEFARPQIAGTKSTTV
Chain of DCN1 (DCUND1) protein PONY domain (Q96GG9 60-248): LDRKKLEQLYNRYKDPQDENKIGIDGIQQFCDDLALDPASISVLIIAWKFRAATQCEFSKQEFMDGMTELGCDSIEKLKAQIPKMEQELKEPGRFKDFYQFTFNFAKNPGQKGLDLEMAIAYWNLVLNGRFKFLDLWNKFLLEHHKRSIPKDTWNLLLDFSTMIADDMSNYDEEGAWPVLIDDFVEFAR

The term IC50 denotes the concentration at which inhibition is half-maximal. By Emax is commonly meant the greatest response seen or fitted, relative to the assay's reference. `CCN1C(=O)[C@@H](NC(=O)c2cccc(C(F)(F)F)c2)[C@@H](c2cccc(NC(=O)[C@H](C)Cl)c2)c2c(C)nn(-c3ccccc3)c21` (mixture of isomers) [Compound I-16]: the IC50 in experiment [1] (setting [2]) and in experiment [1] (setting [3]) was > 3000 nM each time. Moreover, the Emax at DCN1 protein lay in the range of 0 to 30%.
Turning to `CCN1C(=O)[C@@H](NC(=O)c2cccc(C(F)(F)F)c2)[C@@H](c2cccc(NC(=O)[C@H](F)Cl)c2)c2c(C)nn(-c3ccccc3)c21` (mixture of isomers) [Compound I-18], the IC50 in experiment [1] (setting [2]) and in experiment [1] (setting [4]) was > 3000 nM throughout. Also, on DCN1 protein, the Emax was in the range of 0 to 30%.
In the case of `CCN1C(=O)[C@H](NC(=O)c2cccc(C(F)(F)F)c2)[C@@H](c2ccccc2NC(=O)[C@H](C)Br)c2cnn(-c3ccccc3)c21` (mixture of isomers) [Compound I-72], the IC50 in experiment [1] (setting [2]) is 200 to 1000 nM; in experiment [1] (setting [4]) it was 1000 to 3000 nM. Moreover, the Emax on DCN1 protein was 80 to 100%.
For the molecule `CCN1C(=O)[C@H](NC(=O)c2cccc(C(F)(F)F)c2)[C@@H](c2cccc(NC(=O)[C@H](F)Cl)c2)c2c(C)nn(-c3ccccc3)c21` (mixture of isomers) [Compound I-150], the results for the IC50 in experiment [1] (setting [2]) and in experiment [1] (setting [4]) were 200 to 1000 nM and 1000 to 3000 nM, respectively. Besides, at DCN1 protein, the Emax lay in the range of 80 to 100%.
For the molecule `C=C(CN1CCOCC1)C(=O)Nc1cccc([C@H]2c3c(C)nn(-c4ccccc4)c3N(CC)C(=O)[C@@H]2NC(=O)c2cccc(C(F)(F)F)c2)c1` (racemic) [Compound I-9, N-[rac-(4S,5R)-7-ethyl-3-methyl-4-[3-[2-(morpholinomethyl)prop-2-enoylamino]phenyl]-6-oxo-1-phenyl-4,5-dihydropyrazolo[3,4-b]pyridin-5-yl]-3-(trifluoromethyl)benzamide], the IC50 in experiment [1] (setting [2]) and in experiment [1] (setting [4]) was ≤ 200 nM each time. Moreover, at DCN1 protein, the Emax was 80 to 100%.
Turning to `C=C(CN1CC(F)(F)C1)C(=O)Nc1cccc([C@@H]2c3c(C)nn(-c4ccccc4)c3N(CC)C(=O)[C@H]2NC(=O)c2cccc(C(F)(F)F)c2)c1` (racemic) [Compound I-11], the IC50 in experiment [1] (setting [2]) and in experiment [1] (setting [3]) was ≤ 200 nM in each case. Further, at DCN1 protein, the Emax is 80 to 100%.
`C=C(CN1CCOCC1)C(=O)Nc1ccccc1[C@H]1c2cnn(-c3ccccc3)c2N(CC)C(=O)[C@@H]1NC(=O)c1cccc(C(F)(F)F)c1` (racemic) [Compound I-15]: the IC50 in experiment [1] (setting [2]) and in experiment [1] (setting [3]) was ≤ 200 nM each time. The Emax at DCN1 protein was in the range of 80 to 100%.
Regarding `C=C(C)C(=O)Nc1cccc([C@H]2c3c(C)nn(-c4ccccc4)c3N(CC)C(=O)[C@H]2NC(=O)c2cccc(C(F)(F)F)c2)c1` (racemic) [Compound I-17], the IC50 in experiment [1] (setting [2]) and in experiment [1] (setting [4]) was > 3000 nM in each case. This molecule also registered an Emax on DCN1 protein of 0 to 30%.
Consider `CC#CC(=O)Nc1cccc([C@H]2c3c(C)nn(-c4ccccc4)c3N(CC)C(=O)[C@H]2NC(=O)c2cccc(C(F)(F)F)c2)c1` (racemic) [Compound I-19], for which the concentration for half-maximal inhibition (IC50) in experiment [1] (setting [2]) and in experiment [1] (setting [4]) was > 3000 nM each time. Besides, the Emax on DCN1 protein was in the range of 0 to 30%.
As for `CCN1C(=O)[C@@H](NC(=O)c2cccc(C(F)(F)F)c2)[C@@H](c2cccc(NC#N)c2)c2c(C)nn(-c3ccccc3)c21` (racemic) [Compound I-22], the IC50 in experiment [1] (setting [2]) and in experiment [1] (setting [4]) was > 3000 nM throughout. On DCN1 protein, this molecule displayed a maximal effect (Emax) of 0 to 30%.
As to `C/C=C/C(=O)Nc1cccc([C@H]2c3c(C)nn(-c4ccccc4)c3N(CC)C(=O)[C@H]2NC(=O)c2cccc(C(F)(F)F)c2)c1` (racemic) [Compound I-23], the IC50 in experiment [1] (setting [2]) and in experiment [1] (setting [4]) was > 3000 nM throughout. In addition, the Emax on DCN1 protein was in the range of 0 to 30%.
With `CCN1C(=O)[C@@H](NC(=O)c2cccc(C(F)(F)F)c2)[C@@H](c2cccc(NC(=O)C3=CCCC3)c2)c2c(C)nn(-c3ccccc3)c21` (racemic) [Compound I-24], the IC50 in experiment [1] (setting [2]) and in experiment [1] (setting [4]) was > 3000 nM throughout. The molecule also yielded an Emax on DCN1 protein of 0 to 30%.
In the case of `C=C(F)C(=O)Nc1ccccc1[C@H]1c2cnn(-c3ccccc3)c2N(CC)C(=O)[C@@H]1NC(=O)c1cccc(C(F)(F)F)c1` (racemic) [Compound I-199], on DCN1 protein, the Emax is 0 to 30%.
Take `CCN1C(=O)[C@H](NC(=O)c2cccc(C(F)(F)F)c2)[C@@H](c2ccccc2NC(=O)COc2c(F)c(F)cc(F)c2F)c2cnn(-c3ccccc3)c21` (racemic) [Compound I-200]: the maximal response (Emax) on DCN1 protein lay within 0 to 30%.
The same measure, in the same setting: the figure for `C=C(C)C(=O)Nc1cccc([C@H]2c3c(C)nn(-c4ccccc4)c3N(CC)C(=O)[C@@H]2NC(=O)c2cccc(C(F)(F)F)c2)c1` (racemic) [Compound I-201] is 0 to 30%.
Still for that read-out and setting: the figure for `CCN1C(=O)[C@@H](NC(=O)c2cccc(C(F)(F)F)c2)[C@@H](c2cccc(NC(=O)CCl)c2)c2c(C)nn(-c3ccccc3)c21` (racemic) [Compound I-203] is 0 to 30%; for `CCN1C(=O)[C@@H](NC(=O)c2cccc(C(F)(F)F)c2)[C@@H](c2cccc(NC(=O)/C=C/CN3CCOCC3)c2)c2c(C)nn(-c3ccccc3)c21` (racemic) [Compound I-205] it is 0 to 30%.
As for `CCN1C(=O)[C@@H](NC(=O)c2cccc(C(F)(F)F)c2)[C@@H](c2cccc(NC(=O)COc3c(F)c(F)cc(F)c3F)c2)c2c(C)nn(-c3ccccc3)c21` (racemic) [Compound I-206], the Emax at DCN1 protein lay in the range of 0 to 30%.
On to `C#CC(=O)Nc1cccc([C@H]2c3c(C)nn(-c4ccccc4)c3N(CC)C(=O)[C@@H]2NC(=O)c2cccc(C(F)(F)F)c2)c1` (racemic) [Compound I-207], for which the Emax at DCN1 protein lay within 80 to 100%.
Still for that read-out and setting: for `CCN1C(=O)[C@H](NC(=O)c2cccc(C(F)(F)F)c2)[C@@H](c2ccccc2NC(=O)CCl)c2c(C)nn(-c3ccccc3)c21` (racemic) [Compound I-208] the value was 80 to 100%.
The same measure, in the same setting: the figure for `CCN1C(=O)[C@H](NC(=O)c2cccc(C(F)(F)F)c2)[C@@H](c2cccc(NS(=O)(=O)CCl)c2)c2c(C)nn(-c3ccccc3)c21` (racemic) [Compound I-209] is 0 to 30%.
For `CCN1C(=O)[C@H](NC(=O)c2cccc(C(F)(F)F)c2)[C@@H](c2ccccc2NC(=O)CCl)c2cnn(-c3ccccc3)c21` [Compound I-178, N-((4S,5R)-4-(2-(2-chloroacetamido)phenyl)-7-ethyl-6-oxo-1-phenyl-4,5,6,7-tetrahydro-1H-pyrazolo[3,4-b]pyridin-5-yl)-3-(trifluoromethyl)benzamide], on DCN1 protein, the “% Adduct Formation (MS Emax)” value was “+ (MS Emax % adduct formation greater than or equal to 0.0 and less than or equal to 30.0)”.
As for `CCN1C(=O)[C@@H](NC(=O)c2cccc(C(F)(F)F)c2)[C@H](c2ccccc2NC(=O)CCl)c2cnn(-c3ccccc3)c21` [Compound I-197, N-((4R,5S)-4-(2-(2-chloroacetamido)phenyl)-7-ethyl-6-oxo-1-phenyl-4,5,6,7-tetrahydro-1H-pyrazolo[3,4-b]pyridin-5-yl)-3-(trifluoromethyl)benzamide], at DCN1 protein, the Emax is 80 to 100%.
For `CCN1C(=O)[C@@H](NC(=O)c2cccc(C(F)(F)F)c2)[C@@H](c2cccc(NC(=O)C3=CCC3)c2)c2c(C)nn(-c3ccccc3)c21` [Compound I-202], the Emax on DCN1 protein lay within 0 to 30%.
